These results are taken from patent publication US6916773B2, “Non-surfactant solubilizing agent” (Ecolab, Inc., priority 2002, dated 2005).

Each structure is given as a SMILES string.

Format in all cases: physicochemical
Common to all, as to conditions: room temperature

Series [1] in a line: Sodium benzoate added to aqueous solvent solution until single phase observed (DPnB). As to the method:
(§1) Aqueous solutions of dipropylene glycol n-butyl ether(DPnB), propylene glycol phenyl ether(PPh), and benzyl alcohol were prepared and sodium benzoate was added at room temperature to each solution until a single phase solution was observed.

A short description of series [2]: Sodium benzoate added to aqueous solvent solution until single phase observed (benzyl alcohol). As to the method:
as §1

A short description of series [3]: Sodium benzoate added to aqueous solvent solution until single phase observed (PPh). As to the method: as §1

Consider `O=C([O-])c1ccccc1.[Na+]` [Na Benzoate, sodium benzoate], for which the “Na Benzoate at which a single phase solution was observed” value (“Na Benzoate” for short) in series [1] (Water 45 wt %, DPnB 45 wt %) stood at 10 wt %; in series [1] (Water 62 wt %, DPnB 26 wt %), 12 wt %; in series [1] (Water 70 wt %, DPnB 18 wt %) it was 12 wt %; in series [1] (Water 75 wt %, DPnB 13 wt %), 12 wt %; in series [1] (Water 79 wt %, DPnB 9 wt %) it was 12 wt %; in series [1] (Water 86 wt %, DPnB 4 wt %), 10 wt %. The “Na Benzoate” value is listed as 0 wt % in series [1] (Water 98 wt %, DPnB 2 wt %); 0 wt % in series [1] (Water 99 wt %, DPnB 1 wt %); 12 wt % in series [2] (Water 44 wt %, Benzyl Alcohol 44 wt %); 13 wt % in series [2] (Water 61 wt %, Benzyl Alcohol 26 wt %); 14 wt % in series [2] (Water 69 wt %, Benzyl Alcohol 17 wt %); 13 wt % in series [2] (Water 74 wt %, Benzyl Alcohol 13 wt %). Besides, the “Na Benzoate” value in series [2] (Water 78 wt %, Benzyl Alcohol 9 wt %) was 13 wt %; in series [2] (Water 85 wt %, Benzyl Alcohol 4 wt %) it was 11 wt %; in series [2] (Water 98 wt %, Benzyl Alcohol 2 wt %), 0 wt %; in series [2] (Water 99 wt %, Benzyl Alcohol 1 wt %) it was 0 wt %; in series [3] (Water 43 wt %, PPh 43 wt %) it was 14 wt %; in series [3] (Water 58 wt %, PPh 25 wt %), 17 wt %. Further, the “Na Benzoate” value in series [3] (Water 63 wt %, PPh 16 wt %) is given as 21 wt %; in series [3] (Water 69 wt %, PPh 12 wt %), 19 wt %; in series [3] (Water 74 wt %, PPh 8 wt %), 18 wt %; in series [3] (Water 79 wt %, PPh 4 wt %), 17 wt %; in series [3] (Water 83 wt %, PPh 2 wt %) it was 15 wt %; in series [3] (Water 93 wt %, PPh 1 wt %), 6 wt %.
